In patent US12247033B2, “Triazole-substituted imidazo[1,2-a]pyrimidines as cGAS inhibitors” (GlaxoSmithKline Intellectual Property Development Limited, priority 2022, dated 2025):
pIC50: −log10 of the molar value. ≈ marks a conversion by molar mass, not a printed value. Counter-ions that a name gives are not always drawn.

Key:
[1] = FaSSIF solubility (Fasted State Simulated Intestinal Fluid); format: physicochemical; details: thermodynamic from solid, FaSSIF pH 6.5, 4 h equilibration at room temperature, dynamic range 1-1000 μg/mL
Procedure: 1 mL of FaSSIF buffer (3 mM sodium taurocholate, 0.75 mM lecithin in sodium phosphate buffer at pH 6.5) was added to manually weighed 1 mg of the solid compound in a 4 mL vial. […] The residual solid was removed by filtration. The supernatant solution was quantified by HPLC-UV using single point calibration of a known concentration of the compound in DMSO. The dynamic range of the assay was 1-1000 μg/mL.

CGAS = CGAS whole blood cytokine release assay (384-well, BacMam stimulation, IP-10 by cytometric bead array); format: cell-based; details: Homo sapiens, 6 h; read-out: hWB pXC50 (converted)
In short: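 Heparinised human donor whole blood mixed with serially diluted compound plus Null BacMam stimulus, incubated 6 h at 37° C, 5% CO2. Supernatant IP-10 quantified by cytometric bead array on flow cytometer (488 nm excitation, 585/40 nm emission); inhibition of IP-10 calculated.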

human CGAS (157-522) = human CGAS (157-522) (Homo sapiens, UniProt Q8N884); experiment: biochemical;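 further: biochemical enzyme reaction, 2′3′-cGAMP product measured by RapidFire mass spectrometry (MRM) normalised to c-di-UMP internal standard, inhibition of product formation relative to high and low control wells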
Sequence of human CGAS (157-522) (Q8N884 157-522): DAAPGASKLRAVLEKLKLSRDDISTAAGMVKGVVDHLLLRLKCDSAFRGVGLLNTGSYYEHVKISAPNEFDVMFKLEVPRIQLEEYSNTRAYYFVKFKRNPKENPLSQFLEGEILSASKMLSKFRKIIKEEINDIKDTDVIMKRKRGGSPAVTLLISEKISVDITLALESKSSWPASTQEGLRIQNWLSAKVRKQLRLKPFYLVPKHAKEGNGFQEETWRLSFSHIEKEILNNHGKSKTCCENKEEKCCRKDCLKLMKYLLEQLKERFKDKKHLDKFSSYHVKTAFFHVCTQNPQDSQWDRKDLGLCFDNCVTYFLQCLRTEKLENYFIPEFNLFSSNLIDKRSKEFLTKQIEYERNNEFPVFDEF
Procedure: Compounds were serially diluted 2, 3, or 4-fold in neat DMSO to generate 11-point dose response curves and then 250 nL compound or DMSO solution was transferred to Greiner 384-well V-bottom assay plates (Catalog #781280) using an Echo acoustic dispenser (Labcyte). A solution of 150 μM ATP, 150 μM GTP, 20 μM pppGpA (GTP-2′5′-AMP, custom synthesis from ChemGenes), and 10 μg/mL sheared salmon sperm DNA (Sigma, Catalog #D1626) in assay buffer (20 mM Trizma, pH 7.5, 10 mM magnesium chloride, 0.3 mM CHAPS, and 0.01% (w/v) bovine serum albumin) was added to columns 1-17, 19-24 of the plate at 12.5 μL/well using a Combi liquid handler (ThermoFisher). A 12.5 μL/well low control solution containing 150 μM ATP, 150 μM GTP, 20 μM pppGpA in assay buffer was added to column 18 using the Combi. A 12.5 μL/well solution of 10-100 nM human CGAS (157-522) in assay buffer was then added to all wells of the plate using the Combi. […] Reactions were quenched by added 50 μL/well of 0.5% (v/v) trifluoroacetic acid (TFA) in mass spectrometry grade deionized water containing 5 μM cyclic-di-UMP (ci-di-UMP; Invivogen Catalog #tlrl-cdu) as the internal standard (IS). Plates were centrifuged for 1 min and then quenched reactions were analyzed using a RF-MS 300 system operating in a Multiple Reaction Monitoring (MRM) detection mode.
Samples (10 μL injection volume) were passed over a silica C18/type C solid phase extraction (SPE) cartridge for analyte (2′3′-cyclic guanosine monophosphate adenosine monophosphate (2′3′-cGAMP), product of biochemical reaction)/pppGpA/c-di-UMP IS adsorption. Adsorbed samples were desalted for 3000 ms using a 100% water eluent A/desalting solution. Afterwards, desalted samples were eluted using a 0.5% TFA in 20%/80% acetonitrile/water eluent B/elution solution directly into either a Sciex 4000, 5000 or 5500 triple quadrupole mass spectrometer (QQQ-MS) for MRM analyte/IS detection. QQQ-MS detection conditions were as follow: scan type: MRM; curtain (CUR) gas: 30 psi; nebulizer (GS1) gas: 50 psi; drying (GS2) gas: 60 psi; collisionally activated dissociation (CAD) gas: 12 relative setting; precursor ion (Q1) masses: 2′3′-cGAMP: m/z 675.1 Da/pppGpA: m/z 853.0 Da/c-di-UMP: m/z 613.1 Da; fragment ion (Q3) masses: 2′3′-cGAMP: m/z 524.1 Da/pppGpA: m/z 702.0 Da/c-di-UMP: 307.1 Da; declustering potentials (DPs): 2′3′-cGAMP: +81 V/pppGpA: +85 V/c-di-UMP: +85 V; entrance potential: +10 V (all analytes); collision energies (CEs): 2′3′-cGAMP: +33 V/pppGpA: +36 V/c-di-UMP: +35 V; collision cell exit potential (CXP): +10 V (all analytes); interface heater (Sciex 4000/5000 only): on; Q1 resolution: unit (all analyte); Q3 resolution: unit (all analytes). The area under the curve (AUC) for all analytes was obtained using the RapidFire Integrator software application to calculate AUC-2′3′-cGAMP/AUC-c-di-UMP intensity ratio. Percent product formation was calculated by comparison to column 6 (high control)/column 18 (low control) responses. The % product inhibition was calculated as follows:
[formula] where A is the minimum response, B is the maximum response, C is the log10*XC50, D is the slope factor, and x is the log10 compound concentration [M] in ABASE XE.

Structure (SMILES) | solubility at 4 h [1] [µg/mL] | IC50 (CGAS) [nM] | pIC50 (human CGAS (157-522))
CNCC(=O)OCc1cccnc1N(C)C(=O)OC(C)n1cncc1-c1c(-c2nc(C(F)(F)F)n[nH]2)nc2ncccn12 (centres unmarked) [Example 25, {2-[methyl({[1-(5-{2-[3-(trifluoromethyl)-1H-1,2,4-triazol-5-yl]imidazo[1,2-a]pyrimidin-3-yl}-1H-imidazol-1-yl)ethoxy]carbonyl})amino]pyridin-3-yl}methyl 2-(methylamino)acetate, hydrochloride salt] | > 1000 | 316 | 7.60
O=C(CCCOP(=O)(O)O)OCn1cnc(-c2c(-c3nc(C(F)(F)F)n[nH]3)nc3ncccn23)c1 [Example 29, {4-oxo-4-[(4-{2-[3-(trifluoromethyl)-1H-1,2,4-triazol-5-yl]imidazo[1,2-a]pyrimidin-3-yl}-1H-imidazol-1-yl)methoxy]butoxy}phosphonic acid, trifluoroacetic acid salt] | > 1000 | 316 | 7.50
CC(C)[C@H](N)C(=O)OCn1cnc(-c2c(-c3nc(C(F)(F)F)nn3COC(=O)[C@@H](N)C(C)C)nc3ncccn23)c1 [Example 24, (4-{2-[1-({[(2S)-2-amino-3-methylbutanoyl]oxy}methyl)-3-(trifluoromethyl)-1H-1,2,4-triazol-5-yl]imidazo[1,2-a]pyrimidin-3-yl}-1H-imidazol-1-yl)methyl (2S)-2-amino-3-methylbutanoate, 2 trifluoroacetic acid salt] | 324 | – | 7.20
CNCCOC(=O)OCn1cnc(-c2c(-c3nc(C(F)(F)F)nn3COC(=O)OCCNC)nc3ncccn23)c1 [Example 27, [4-(2-{1-[({[2-(methylamino)ethoxy]carbonyl}oxy)methyl]-3-(trifluoromethyl)-1H-1,2,4-triazol-5-yl}imidazo[1,2-a]pyrimidin-3-yl)-1H-imidazol-1-yl]methyl 2-(methylamino)ethyl carbonate, 2 trifluoroacetic acid salt] | 298 | 158 | –
O=P(O)(O)OCn1nc(C(F)(F)F)nc1-c1nc2ncc(F)cn2c1-c1cnc[nH]1 [Example 34, ({5-[6-fluoro-3-(1H-imidazol-5-yl)imidazo[1,2-a]pyrimidin-2-yl]-3-(trifluoromethyl)-1H-1,2,4-triazol-1-yl}methoxy)phosphonic acid] | > 1000 | – | 6.10
CNCCOC(=O)OCn1nc(C(F)(F)F)nc1-c1nc2ncccn2c1-c1cnc[nH]1 [Example 28, {5-[3-(1H-imidazol-5-yl)imidazo[1,2-a]pyrimidin-2-yl]-3-(trifluoromethyl)-1H-1,2,4-triazol-1-yl}methyl 2-(methylamino)ethyl carbonate, 2 trifluoroacetic acid salt] | 208 | 316 | 8.50
FC(F)(F)c1n[nH]c(-c2nc3nc4c(cn3c2-c2cnc[nH]2)CSCC4)n1 [Example 103, 6-(1H-imidazol-5-yl)-5-[3-(trifluoromethyl)-1H-1,2,4-triazol-5-yl]-11-thia-2,4,7-triazatricyclo[7.4.0.03,7]trideca-1,3,5,8-tetraene] | – | 251 | 8.90
FC(F)c1n[nH]c(-c2nc3ncccn3c2-c2cnc[nH]2)n1 [Example 50, 3-(difluoromethyl)-5-[3-(1H-imidazol-5-yl)imidazo[1,2-a]pyrimidin-2-yl]-1H-1,2,4-triazole] | – | 79.4 | 8.50
FC(F)CN1CC(Oc2cnc3nc(-c4nc(C(F)(F)F)n[nH]4)c(-c4cnc[nH]4)n3c2)C1 [Example 162, 5-(6-{[1-(2,2-difluoroethyl)azetidin-3-yl]oxy}-3-(1H-imidazol-5-yl)imidazo[1,2-a]pyrimidin-2-yl)-3-(trifluoromethyl)-1H-1,2,4-triazole] | – | 1000 | 8.10
CC(=O)OCn1cnc(-c2c(-c3nc(C(F)(F)F)nn3COC(C)=O)nc3ncccn23)c1 [Example 84, [5-(3-{1-[(acetyloxy)methyl]-1H-imidazol-4-yl}imidazo[1,2-a]pyrimidin-2-yl)-3-(trifluoromethyl)-1H-1,2,4-triazol-1-yl]methyl acetate] | – | 158 | 4.80
O=C(O)CCOC(=O)OCn1nc(C(F)(F)F)nc1-c1nc2ncccn2c1-c1cnc[nH]1 [Example 33, 3-{[({5-[3-(1H-imidazol-5-yl)imidazo[1,2-a]pyrimidin-2-yl]-3-(trifluoromethyl)-1H-1,2,4-triazol-1-yl}methoxy)carbonyl]oxy}propanoic acid, 2 trifluoroacetic acid salt] | – | 501 | 6.50

More lines, now with the values ahead:

solubility at 4 h [1] [µg/mL] | IC50 (CGAS) [nM] | pIC50 (human CGAS (157-522)) | Structure (SMILES)
4 (≈ 12.5 µM) | 158 | – | FC(F)(F)c1n[nH]c(-c2nc3ncccn3c2-c2c[nH]cn2)n1 [Example 1, 5-[3-(1H-imidazol-4-yl)imidazo[1,2-a]pyrimidin-2-yl]-3-(trifluoromethyl)-1H-1,2,4-triazole]
455 (≈ 1010 µM) | 794 | 6.60 | O=C(O)CCC(=O)OCn1cnc(-c2c(-c3nc(C(F)(F)F)n[nH]3)nc3ncccn23)c1 [Example 23, 4-oxo-4-[(4-{2-[3-(trifluoromethyl)-1H-1,2,4-triazol-5-yl]imidazo[1,2-a]pyrimidin-3-yl}-1H-imidazol-1-yl)methoxy]butanoic acid]
– | 2000 | 8.20 | FC(F)(F)c1n[nH]c(-c2nc3ncc(COCCn4cccn4)cn3c2-c2c[nH]cn2)n1 [Example 146, 5-[3-(1H-imidazol-4-yl)-6-{[2-(1H-pyrazol-1-yl)ethoxy]methyl}imidazo[1,2-a]pyrimidin-2-yl]-3-(trifluoromethyl)-1H-1,2,4-triazole]
– | 126 | 8.20 | FC(F)(F)c1n[nH]c(-c2nc3nc4c(cn3c2-c2c[nH]cn2)COC4)n1 [Example 10, 12-(1H-imidazol-4-yl)-11-[3-(trifluoromethyl)-1H-1,2,4-triazol-5-yl]-5-oxa-1,8,10-triazatricyclo[7.3.0.0^3, ^7] dodeca-2,7,9,11-tetraene, 0.2 trifluoroacetic acid salt]
– | 398 | 7.90 | OCc1cnc2nc(-c3nc(C(F)(F)F)n[nH]3)c(-c3cnc[nH]3)n2c1 [Example 61, [3-(1H-imidazol-5-yl)-2-[3-(trifluoromethyl)-1H-1,2,4-triazol-5-yl]imidazo[1,2-a]pyrimidin-6-yl]methanol]
– | 1000 | 8.00 | FC(F)(F)c1n[nH]c(-c2nc3ncc(COCCC4COCCO4)cn3c2-c2c[nH]cn2)n1 (centres unmarked) [Example 145, 5-(6-{[2-(1,4-dioxan-2-yl)ethoxy]methyl}-3-(1H-imidazol-4-yl)imidazo[1,2-a]pyrimidin-2-yl)-3-(trifluoromethyl)-1H-1,2,4-triazole]
